In US20230263822A1, “MODULATION OF FACTOR 11 EXPRESSION” (Ionis Pharmaceuticals, Inc., priority 2008, published 2023):
e = 2'-O-(2-methoxyethyl) (MOE); d = 2'-deoxy (DNA)

Legend:
human Factor 11 mRNA [1] = assay: Antisense inhibition of human Factor 11 in HepG2 cells, lipofectin, 75 nM (Example 1); assay type: cell-based; conditions: 75 nM antisense oligonucleotide, ~24 h, relative to untreated control cells, gapmers targeted to SEQ ID NO: 1
Outline: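 HepG2 cells transfected via lipofectin with 75 nM antisense oligonucleotide (5-10-5 MOE gapmers, 20-mers, phosphorothioate, 5-methylcytidines), treated ~24 h. Factor 11 mRNA quantified by real-time PCR, normalised to RIBOGREEN total RNA; percent inhibition versus untreated cells.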

human Factor 11 mRNA [2] = assay: Dose-dependent antisense inhibition of human Factor 11 in HepG2 cells, lipofectin 9.375-150 nM (Example 2); assay type: cell-based; conditions: ~16 h
Experimental: Cells were plated at a density of 10,000 cells per well and transfected using lipofectin reagent with 9.375 nM, 18.75 nM, 37.5 nM, 75 nM, and 150 nM concentrations of antisense oligonucleotide, as specified in Table 3. After a treatment period of approximately 16 hours, RNA was isolated from the cells and Factor 11 mRNA levels were measured by quantitative real-time PCR. Human Factor 11 primer probe set RTS 2966 (forward sequence: […], incorporated herein as SEQ ID NO: 3; reverse sequence: […], incorporated herein as SEQ ID NO: 4; probe sequence: TTGTCTACTGAAGCACACCCAAACAGGGAX, incorporated herein as SEQ ID NO: 5) was used to measure mRNA levels. Factor 11 mRNA levels were adjusted according to total RNA content, as measured by RIBOGREEN. Results are presented as percent inhibition of Factor 11, relative to untreated control cells.

human Factor 11 mRNA [3] = assay: Antisense inhibition of human Factor 11 in HepG2 cells, electroporation, 8,000 nM (Example 30); assay type: cell-based; conditions: electroporation, 8,000 nM antisense oligonucleotide
Outline: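 HepG2 cells electroporated with 8,000 nM 5-10-5, 5-8-5 or 6-8-6 MOE gapmers (phosphorothioate, 5-methylcytidine), ~24 h. Factor 11 mRNA quantified by qRT-PCR, normalised to RIBOGREEN total RNA. Reported as percent inhibition versus untreated cells.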

[4] = parameters: species or system CD1 mice; conditions: mouse, in vivo, sc, 50 mg/kg
Experimental: The concentration of the full-length oligonucleotide was measured. The method used is a modification of previously published methods (Leeds et al., 1996; Geary et al., 1999) which consist of a phenol-chloroform (liquid-liquid) extraction followed by a solid phase extraction. An internal standard (ISIS 355868, a 27-mer 2′-O-methoxyethyl modified phosphorothioate oligonucleotide, […], designated herein as SEQ ID NO: 270) was added prior to extraction. […] The results are presented in Table 85 expressed as μg/g liver tissue.

[5] = parameters: species or system Sprague-Dawley rats; conditions: rat, in vivo, sc, 20 mg/kg
Experimental: The concentration of the full-length oligonucleotide as well as the total oligonucleotide concentration (including the degraded form) was measured. The method used is a modification of previously published methods (Leeds et al., 1996; Geary et al., 1999) which consist of a phenol-chloroform (liquid-liquid) extraction followed by a solid phase extraction. An internal standard (ISIS 355868, a 27-mer 2′-O-methoxyethyl modified phosphorothioate oligonucleotide, […], designated herein as SEQ ID NO: 270) was added prior to extraction. […] The results are presented in Tables 91 and 92, expressed as μg/g liver or kidney tissue. Half-lives were then calculated using WinNonlin software ([…]).

[6] = Viscosity of ISIS antisense oligonucleotides, micro-viscometer at 25 °C (Example 47); assay type: physicochemical; conditions: for Concentration: concentration of the viscosity sample, UV reading at 260 nM at 85° C.; for Viscosity: in water, micro-viscometer at 25° C., at the concentration of the same line
Outline: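 Oligonucleotide (32-35 mg) was dissolved in 120 μL water by heating at 50° C, and viscosity was measured by micro-viscometer at 25° C. Concentration was checked by UV at 260 nm at 85° C on a dilution in water. Screening cut-off: >40 cP at 165-185 mg/mL.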

human Factor 11 mRNA [7] = assay: Antisense inhibition of human Factor 11 in HepG2 cells by microwalk gapmers, lipofectin, 75 nM (Example 3); assay type: cell-based; conditions: HepG2 cells, lipofectin, gapmers targeted to nucleobases 1275 to 1318 of SEQ ID NO: 1
Outline: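 HepG2 cells (10,000/well) were transfected via lipofectin with 75 nM 20-mer MOE gapmers (phosphorothioate, 5-methyl-C) for about 24 h. Factor 11 mRNA was measured by qRT-PCR, normalized to RIBOGREEN total RNA, and given as percent inhibition versus untreated cells.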

human Factor 11 mRNA [8] = assay: Dose-dependent inhibition of human Factor 11 in HepG2 cells, electroporation 123.46-10,000 nM (Example 31); assay type: cell-based; conditions: for Percent inhibition of Factor 11 mRNA at 123.47 nM / Percent inhibition of Factor 11 mRNA at 370.37 nM / Percent inhibition of Factor 11 mRNA at 1,111.11 nM / Percent inhibition of Factor 11 mRNA at 3,333.33 nM / Percent inhibition of Factor 11 mRNA at 10,000.0 nM: approx. 16 hours, relative to untreated control cells; for Percent inhibition of Factor 11 mRNA at 1,111.11 nM: electroporation, 1,111.11 nM; for Percent inhibition of Factor 11 mRNA at 3,333.33 nM: electroporation, 3,333.33 nM; for Percent inhibition of Factor 11 mRNA at 10,000.0 nM: electroporation, 10,000.0 nM
Outline: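 HepG2 cells were electroporated with antisense oligonucleotide at 123.46, 370.37, 1,111.11, 3,333.33 and 10,000 nM and harvested about 16 hours later. Factor 11 mRNA was quantified by qRT-PCR and normalised to total RNA (RIBOGREEN). Inhibition is expressed relative to untreated cells.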

[9] = rat, in vivo, sc, 50 mg/kg
[10] = rat, in vivo, sc, 50 mg/kg; remark: listed apart in the source
[11] = rat, in vivo, sc, 50 mg/kg; remark: listed apart in the source

Row | Substance | Percent inhibition of human Factor 11 mRNA levels (human Factor 11 mRNA [3]) | Half-Life in the liver [4] | Half-life of ISIS oligonucleotides in the liver and kidney [5] | ALT [9] | AST [9] | Albumin [9] | Bilirubin [9] | BUN [10] | Creatinine [10] | HCT [11] | MCH [11] | MCHC [11] | MCV [11] | Platelets [11] | RBC [11] | WBC [11] | hemoglobin [11] | lymphocytes [11] | monocytes [11] | neutrophils [11] | also measured
1 | 413481 (antisense GGTGCACAGTTTCTGGCAGG; 5-10-5 MOE gapmer, further chemistry not given here) [compound 413481] | 82% | 20.6 days | 21 days | – | – | – | – | – | – | – | – | – | – | – | – | – | – | – | – | – | % inhibition (human Factor 11 mRNA [1]): 86%; percent inhibition of Factor 11 at 9.375 nM (human Factor 11 mRNA [2]; 9.375 nM): 22%; percent inhibition of Factor 11 at 18.75 nM (human Factor 11 mRNA [2]; 18.75 nM): 38%; percent inhibition of Factor 11 at 37.5 nM (human Factor 11 mRNA [2]; 37.5 nM): 56%; percent inhibition of Factor 11 at 75 nM (human Factor 11 mRNA [2]; 75 nM): 67%; percent inhibition of Factor 11 at 150 nM (human Factor 11 mRNA [2]; 150 nM): 83%; IC50 (human Factor 11 mRNA [2]): 0.032 µM; Concentration [6]: 144 mg/mL; Viscosity [6]: 23 cP
2 | 416860 (antisense CGGACGGCATTGGTGCACAG; 5-10-5 gapmer, further chemistry not given here) [compound 416860] | 89% | 20.6 days | 21 days | – | – | – | – | – | – | – | – | – | – | – | – | – | – | – | – | – | % inhibition (human Factor 11 mRNA [7]): 88%; Percent inhibition of Factor 11 mRNA at 123.47 nM (human Factor 11 mRNA [8]; electroporation): 0%; Percent inhibition of Factor 11 mRNA at 370.37 nM (human Factor 11 mRNA [8]; electroporation): 28%; Percent inhibition of Factor 11 mRNA at 1,111.11 nM (human Factor 11 mRNA [8]): 39%; Percent inhibition of Factor 11 mRNA at 3,333.33 nM (human Factor 11 mRNA [8]): 41%; Percent inhibition of Factor 11 mRNA at 10,000.0 nM (human Factor 11 mRNA [8]): 40%; Concentration [6]: 154 mg/mL; Viscosity [6]: >100 cP
3 | 416861 (antisense GCGGACGGCATTGGTGCACA; 5-10-5 gapmer, further chemistry not given here) [compound 416861] | 90% | 24.5 days | 25 days | – | – | – | – | – | – | – | – | – | – | – | – | – | – | – | – | – | % inhibition (human Factor 11 mRNA [7]): 92%; Percent inhibition of Factor 11 mRNA at 123.47 nM (human Factor 11 mRNA [8]; electroporation): 0%; Percent inhibition of Factor 11 mRNA at 370.37 nM (human Factor 11 mRNA [8]; electroporation): 15%; Percent inhibition of Factor 11 mRNA at 1,111.11 nM (human Factor 11 mRNA [8]): 27%; Percent inhibition of Factor 11 mRNA at 3,333.33 nM (human Factor 11 mRNA [8]): 66%; Percent inhibition of Factor 11 mRNA at 10,000.0 nM (human Factor 11 mRNA [8]): 80%; IC50 (human Factor 11 mRNA [8]; electroporation, Factor 11 mRNA expression): 2 µM; Concentration [6]: 110 mg/mL; Viscosity [6]: 14 cP
4 | ISIS 416825: 5-10-5 MOE gapmer GCCCTTCATGTCTAGGTCCA (sugars from the 5' end e5 d10 e5, backbone and methylation of C not given here) | – | – | – | 89 IU/L | 17 IU/L | 2 | 4 mg/dL | 7 mg/dL | 17 mg/dL | 2% | 2 | 4% | 4 | 6 10^3/μL | 2 | 22 nL⁻¹ | 2 g/dL | 3% | 15% | 25% | –
5 | ISIS 416826: 5-10-5 MOE gapmer ATGCCCTTCATGTCTAGGTC (sugars from the 5' end e5 d10 e5, backbone and methylation of C not given here) | – | – | – | 611 IU/L | 104 IU/L | 6 | 115 mg/dL | 25 mg/dL | 6 mg/dL | 7% | 3 | 4% | 6 | 11 10^3/μL | 5 | 7 nL⁻¹ | 7 g/dL | 5% | 7% | 30% | –
6 | ISIS 416892: 3-14-3 MOE gapmer GCCCTTCATGTCTAGGTCCA (sugars from the 5' end e3 d14 e3, backbone and methylation of C not given here) | – | – | – | 113 IU/L | 183 IU/L | 8 | 1 mg/dL | 188 mg/dL | 1 mg/dL | 13% | 2 | 0% | 1 | 66 10^3/μL | 12 | 68 nL⁻¹ | 14 g/dL | 18% | 58% | 92% | –
7 | ISIS 416925: MOE gapmer, nucleobases 1275 to 1318 of SEQ ID NO: 1 (Table 8) (antisense GGTGCACAGTTTCTGGCAGG; MOE gapmer, wing and gap sizes not given here) | – | – | – | 102 IU/L | 20 IU/L | 5 | 13 mg/dL | 7 mg/dL | 5 mg/dL | 8% | 2 | 4% | 5 | 8 10^3/μL | 6 | 24 nL⁻¹ | 6 g/dL | 4% | 23% | 20% | –
8 | ISIS 416999: MOE gapmer, nucleobases 1275 to 1318 of SEQ ID NO: 1 (Table 8) (antisense GCACAGTTTCTGGCAGGCCT; MOE gapmer, wing and gap sizes not given here) | – | – | – | 92 IU/L | 28 IU/L | 5 | 54 mg/dL | 2 mg/dL | 4 mg/dL | 5% | 3 | 1% | 2 | 12 10^3/μL | 5 | 12 nL⁻¹ | 6 g/dL | 3% | 20% | 23% | –
9 | ISIS 417003: MOE gapmer, nucleobases 1275 to 1318 of SEQ ID NO: 1 (Table 8) (antisense TGGTGCACAGTTTCTGGCAG; MOE gapmer, wing and gap sizes not given here) | – | – | – | 138 IU/L | 23 IU/L | 6 | 50 mg/dL | 9 mg/dL | 9 mg/dL | 8% | 4 | 4% | 6 | 19 10^3/μL | 11 | 83 nL⁻¹ | 11 g/dL | 3% | 6% | 17% | –
